How the values were obtained:
[1] = biological target: T1, BaF3 cells expressing EML-4-ALK-WT (Homo sapiens, UniProt Q9UM73); assay: Cell anti-proliferation experiment 3, BaF3 cells with ALK fusion (CellTiter-Glo); type: cell-based; conditions: 3 days, CTG, read-out: EML-4-ALK-WT IC50
T1 construct: fused on or other part: Q9HC35 (Echinoderm microtubule-associated protein-like 4)
Text: (§1) • 1. […] Test information: • 2.1. Cell information: Cell lines containing ALK mutations in BaF3 were from WuXiAppTec: • Ba/F3-cell lines expressing ALK gene fusion and mutation • Ba/F3-EML-4-ALK-WT • Ba/F3-EML-4-ALK-L 1196M • 2.2.
(§2) Test results: The IC50 values of the compound DA and the control compound against BaF3 cells expressing EML-4-ALK-WT and EML-4-ALK-L1196M are shown in Table 22. • 4.

[2] = biological target: T2, BaF3 cells expressing EML-4-ALK-L1196M (Homo sapiens, UniProt Q9UM73, L1196M, cells depend on it); assay: Cell anti-proliferation experiment 3, BaF3 cells with ALK fusion and mutation (CellTiter-Glo); type: cell-based; conditions: 3 days, CTG, read-out: EML-4-ALK-L1196M IC50
T2 construct: fused on or other part: Q9HC35 (Echinoderm microtubule-associated protein-like 4)
T2 sequence (Q9UM73 whole entry L1196M, the tested form may be a part): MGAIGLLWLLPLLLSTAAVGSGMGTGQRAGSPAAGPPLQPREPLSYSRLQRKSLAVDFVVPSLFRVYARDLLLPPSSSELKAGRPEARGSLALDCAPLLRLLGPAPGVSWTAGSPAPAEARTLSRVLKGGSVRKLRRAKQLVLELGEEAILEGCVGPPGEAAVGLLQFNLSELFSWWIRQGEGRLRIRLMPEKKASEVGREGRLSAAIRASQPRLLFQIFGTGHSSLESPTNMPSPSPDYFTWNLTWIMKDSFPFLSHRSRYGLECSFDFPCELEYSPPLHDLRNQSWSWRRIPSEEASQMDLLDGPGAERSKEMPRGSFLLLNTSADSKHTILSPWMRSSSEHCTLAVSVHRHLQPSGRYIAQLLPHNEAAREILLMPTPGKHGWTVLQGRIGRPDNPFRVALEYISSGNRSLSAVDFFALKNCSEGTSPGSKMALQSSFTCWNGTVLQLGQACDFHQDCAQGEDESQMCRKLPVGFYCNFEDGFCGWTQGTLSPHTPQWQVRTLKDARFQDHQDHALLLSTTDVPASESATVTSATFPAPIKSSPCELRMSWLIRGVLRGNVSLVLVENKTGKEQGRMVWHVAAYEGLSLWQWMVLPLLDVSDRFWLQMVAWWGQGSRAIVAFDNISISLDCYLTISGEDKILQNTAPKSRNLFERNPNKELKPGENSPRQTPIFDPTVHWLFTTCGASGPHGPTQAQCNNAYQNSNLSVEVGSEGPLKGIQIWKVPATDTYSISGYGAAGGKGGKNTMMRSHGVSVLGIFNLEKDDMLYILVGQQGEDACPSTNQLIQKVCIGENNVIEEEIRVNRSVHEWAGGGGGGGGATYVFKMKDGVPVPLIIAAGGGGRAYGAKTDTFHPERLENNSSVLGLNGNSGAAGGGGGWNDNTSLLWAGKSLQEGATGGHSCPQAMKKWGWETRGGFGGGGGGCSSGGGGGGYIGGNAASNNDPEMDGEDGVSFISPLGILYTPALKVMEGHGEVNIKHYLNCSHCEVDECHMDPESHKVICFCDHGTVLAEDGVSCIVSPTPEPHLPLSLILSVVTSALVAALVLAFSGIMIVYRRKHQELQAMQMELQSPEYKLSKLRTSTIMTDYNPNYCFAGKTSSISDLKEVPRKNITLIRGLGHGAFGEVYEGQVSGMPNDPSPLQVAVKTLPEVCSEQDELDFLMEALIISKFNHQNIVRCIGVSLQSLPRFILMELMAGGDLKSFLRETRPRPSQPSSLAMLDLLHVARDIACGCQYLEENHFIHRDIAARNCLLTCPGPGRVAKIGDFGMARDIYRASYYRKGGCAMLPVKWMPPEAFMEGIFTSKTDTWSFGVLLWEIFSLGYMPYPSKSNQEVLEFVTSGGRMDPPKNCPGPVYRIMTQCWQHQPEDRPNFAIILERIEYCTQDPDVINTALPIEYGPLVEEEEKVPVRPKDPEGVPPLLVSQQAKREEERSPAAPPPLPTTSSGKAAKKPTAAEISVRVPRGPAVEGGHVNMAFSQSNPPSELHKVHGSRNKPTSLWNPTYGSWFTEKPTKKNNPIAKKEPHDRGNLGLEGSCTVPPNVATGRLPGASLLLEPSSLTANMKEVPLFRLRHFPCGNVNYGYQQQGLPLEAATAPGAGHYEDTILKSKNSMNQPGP
Text: as §1, §2

[3] = biological target: Ba/F3 cells expressing EGFR-C797S/Del19 (Homo sapiens, UniProt P00533, C797S, cells depend on it, form not given); assay: Cell anti-proliferation experiment 1, BaF3 cells expressing EGFR mutation (CellTiter-Glo); type: cell-based; conditions: 3 days, CTG, read-out: EGFR-C797S-Del19 IC50
[4] = biological target: Ba/F3 cells expressing EGFR-C797S/T790M/L858R (Homo sapiens, UniProt P00533, T790M/C797S/L858R, cells depend on it); assay: as above; type: cell-based; conditions: read-out: EGFR-C797S/T790M/L858R IC50
Procedure: (§6) Test purpose: to detect the effect of the test compounds on the proliferation of cell lines containing EGFR mutations in BaF3 cells • 2. […] Cell information: Cell lines containing EGFR mutations in BaF3 were from WuXiAppTec: • BaF3-cell lines expressing EGFR mutation • EGFR-T790M/Del19 • EGFR-C797S/Del19 • EGFR-T790M/L858R • EGFR-C797S/L858R • EGFR-C797S/T790M/L858R • EGFR-C797S/T790M/Del19 • EGFR-WT wild-type cell lines • 2.2. Test method • Day 0: Cells were seeded in a plate. • a. An ultraviolet lamp of a biological safety cabinet was turned on and countdown was started for 30 minutes. • b. A medium was preheated in a 37° C. water bath. • c. After the ultraviolet irradiation was finished, the biological safety cabinet was opened. The pre-heated medium, PBS, and the like, were wiped with alcohol and placed in the biological safety cabinet. • d. The cells were removed from an incubator, blown to a uniform cell suspension in the biological safety cabinet and counted. • e. Based on the cell counting results, the cell suspension was adjusted to a density of 3,000 cells per well and 50 microliters per well, and seeded in 384-well plates. • f. The cells after seeding were incubated in a 5% CO2 incubator at 37° C. for 3 hours. • g. Compounds were added to the cell plates using Tecan (liquid workstation). • Day 3: the cell plate added with the compounds and CTG (CellTiter-Glo chemiluminescence cell activity assay reagent) were equilibrated at room temperature, 25 μl of CTG was added to each well, centrifuged at 1,000 rpm for 1 minute, and shaken for 1-2 minutes. And centrifuging for 1 minute at 1,000 rpm again, the cell plates were allowed to settle for 10 minutes to detect a signal value in Envision. The IC50 of each compound was calculated by computer fitting with XL-Fit analysis software (the IC50 of the compound on the cell activity inhibition could be obtained by reading the concentrations of the corresponding compounds at 500 inhibition rate). Inhibition rate % C (reading value of the control group without drug−reading value of the sample)/reading value of the control group without drug×100. • 3.

[5] = biological target: Ba/F3 cells expressing EGFR-C797S/T790M/Del19 (Homo sapiens, UniProt P00533, T790M/C797S, cells depend on it, form not given); assay: as above; type: cell-based; conditions: read-out: EGFR-C797S/T790M/Del19 IC50
Sequence of Ba/F3 cells expressing EGFR-C797S/T790M/Del19 (P00533 with tags, fused parts or gaps DEL746-750/T790M/C797S, form open): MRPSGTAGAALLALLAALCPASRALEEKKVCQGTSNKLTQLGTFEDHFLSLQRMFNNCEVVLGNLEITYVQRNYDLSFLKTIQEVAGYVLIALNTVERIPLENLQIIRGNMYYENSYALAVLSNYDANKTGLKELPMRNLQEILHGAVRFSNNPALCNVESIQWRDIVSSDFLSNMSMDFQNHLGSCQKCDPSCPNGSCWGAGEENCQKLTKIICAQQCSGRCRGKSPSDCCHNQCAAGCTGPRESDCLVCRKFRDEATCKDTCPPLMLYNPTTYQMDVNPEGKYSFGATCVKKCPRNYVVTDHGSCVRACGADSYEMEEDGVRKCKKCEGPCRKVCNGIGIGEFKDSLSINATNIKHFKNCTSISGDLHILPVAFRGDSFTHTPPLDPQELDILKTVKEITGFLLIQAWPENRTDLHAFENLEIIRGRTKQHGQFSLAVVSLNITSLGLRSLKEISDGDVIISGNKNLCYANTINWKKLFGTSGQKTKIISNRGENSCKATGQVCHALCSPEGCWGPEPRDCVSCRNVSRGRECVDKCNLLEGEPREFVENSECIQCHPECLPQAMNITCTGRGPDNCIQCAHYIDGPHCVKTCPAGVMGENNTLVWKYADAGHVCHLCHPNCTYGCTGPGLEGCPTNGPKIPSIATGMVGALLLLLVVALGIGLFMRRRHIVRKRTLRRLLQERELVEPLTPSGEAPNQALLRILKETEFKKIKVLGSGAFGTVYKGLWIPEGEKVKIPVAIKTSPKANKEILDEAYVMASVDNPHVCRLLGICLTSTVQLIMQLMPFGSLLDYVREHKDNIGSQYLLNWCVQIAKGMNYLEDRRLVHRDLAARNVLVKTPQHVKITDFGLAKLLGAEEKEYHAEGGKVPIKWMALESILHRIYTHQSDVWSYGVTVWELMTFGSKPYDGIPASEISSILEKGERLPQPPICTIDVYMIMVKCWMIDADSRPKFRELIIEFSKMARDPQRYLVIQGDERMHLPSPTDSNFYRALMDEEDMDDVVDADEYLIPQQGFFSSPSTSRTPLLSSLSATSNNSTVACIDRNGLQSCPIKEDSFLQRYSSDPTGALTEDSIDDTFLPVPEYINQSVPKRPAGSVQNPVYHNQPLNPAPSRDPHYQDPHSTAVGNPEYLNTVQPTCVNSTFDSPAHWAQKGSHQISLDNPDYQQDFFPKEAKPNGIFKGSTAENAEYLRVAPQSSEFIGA

[6] = biological target: Ba/F3 cells expressing EGFR-T790M/Del19 (Homo sapiens, UniProt P00533, T790M, cells depend on it, form not given); assay: as above; type: cell-based; conditions: 3 days, CTG, read-out: EGFR-T790M/Del19 IC50
[7] = biological target: Ba/F3 cells expressing EGFR-WT (Homo sapiens, UniProt P00533); assay: Cell anti-proliferation experiment 1, BaF3 EGFR-WT wild-type cell line (CellTiter-Glo); type: cell-based; conditions: read-out: EGFR-WT IC50
Sequence of Ba/F3 cells expressing EGFR-WT (P00533 whole entry, change not shown): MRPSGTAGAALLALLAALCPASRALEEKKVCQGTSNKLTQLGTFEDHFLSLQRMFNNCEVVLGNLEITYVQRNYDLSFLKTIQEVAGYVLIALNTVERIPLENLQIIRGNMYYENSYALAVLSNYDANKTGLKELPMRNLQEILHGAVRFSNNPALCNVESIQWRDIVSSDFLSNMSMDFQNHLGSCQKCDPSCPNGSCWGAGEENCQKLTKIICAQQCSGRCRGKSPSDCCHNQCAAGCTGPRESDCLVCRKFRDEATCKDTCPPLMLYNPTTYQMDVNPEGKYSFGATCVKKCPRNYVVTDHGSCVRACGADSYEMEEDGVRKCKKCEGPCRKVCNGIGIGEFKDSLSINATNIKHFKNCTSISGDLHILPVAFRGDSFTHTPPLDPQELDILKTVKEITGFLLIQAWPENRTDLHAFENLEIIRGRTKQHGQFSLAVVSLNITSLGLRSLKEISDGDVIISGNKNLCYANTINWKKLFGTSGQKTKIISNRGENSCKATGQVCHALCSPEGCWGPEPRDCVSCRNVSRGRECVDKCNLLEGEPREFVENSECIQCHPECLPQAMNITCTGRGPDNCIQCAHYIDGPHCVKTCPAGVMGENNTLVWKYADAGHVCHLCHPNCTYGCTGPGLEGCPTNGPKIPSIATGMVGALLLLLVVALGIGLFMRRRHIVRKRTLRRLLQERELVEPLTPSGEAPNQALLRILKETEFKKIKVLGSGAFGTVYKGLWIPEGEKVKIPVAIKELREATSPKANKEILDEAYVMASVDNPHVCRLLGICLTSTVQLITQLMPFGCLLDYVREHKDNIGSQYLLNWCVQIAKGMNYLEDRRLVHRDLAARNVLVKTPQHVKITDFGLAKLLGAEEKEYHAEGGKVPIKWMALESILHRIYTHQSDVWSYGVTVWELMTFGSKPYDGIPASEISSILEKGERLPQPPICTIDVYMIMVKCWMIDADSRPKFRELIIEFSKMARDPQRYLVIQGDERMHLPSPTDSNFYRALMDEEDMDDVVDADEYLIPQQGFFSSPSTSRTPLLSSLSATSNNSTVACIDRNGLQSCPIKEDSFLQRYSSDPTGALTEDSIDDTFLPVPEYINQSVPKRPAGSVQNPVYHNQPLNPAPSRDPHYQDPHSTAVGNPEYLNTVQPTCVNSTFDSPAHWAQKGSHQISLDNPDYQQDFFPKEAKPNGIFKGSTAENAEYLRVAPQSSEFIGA
Procedure: as §6

[8] = Comparative experiment of hygroscopicity (Chinese Pharmacopoeia 2020); type: physicochemical; conditions: for Hygroscopicity: class by weight gain after 24 h; for Weight gain % after 24 h: hygroscopicity test
Text: The description of hygroscopic characteristics and the definition of hygroscopic weight gain are as follows: • Deliquescence: absorbs sufficient amount of water to form a liquid; • Very hygroscopic: the weight gain by hygroscopy is not less than 15%; • Hygroscopic: the weight gain by hygroscopy is less than 15% but not less than 2%; • Slightly hygroscopic: the weight gain by hygroscopy is less than 2% but not less than 0.2%; and
Not or almost not hygroscopic: the weight gain by hygroscopy is less than 0.2% from hygroscopicity.

[9] = High temperature and illumination stability test of crystal forms 1-3; type: physicochemical; conditions: for Traits: Day 10 (Table 18-1)
Text: The stabilities of crystal form 2 and crystal form 3 under high temperature, illumination and long-term conditions were investigated.

[10] = as above; type: physicochemical; conditions: Illumination (illuminance: 5000Lx), Day 0 (Table 18-1)
[11] = Stability test 3: long-term and accelerated conditions; type: physicochemical; conditions: Long-term (25° C. ± 2° C., 65% RH ± 10% RH)
Solubility test = type: physicochemical; conditions: Solution with pH = 6.8, 25° C.±2° C.
[12] = tested on: PC9 cells expressing EGFR-Del19; assay: Cell anti-proliferation experiment 2, PC9 cells (SRB); type: cell-based; conditions: Homo sapiens, PC-9, 72 h, read-out: EGFR-Del 19 GI50
Procedure: (§3) • 1. […] Test information: • 2.1. Cell information: PC9 cells carried EGFR Del19 mutation, and the rest of mutant cells were constructed from PC9 cells according to the conventional stable cell strain construction method. • PC9-cell lines expressing EGFR mutation • EGFR-Del19 • EGFR-T790M/Del19 • EGFR-C797S/T790M/Del19 • 2.2. Test method:
(§4) The test compounds were diluted by 5 times each time with an appropriate concentration as an initial concentration of the test, and totally diluted into 6 concentration gradients. […] SRB (Sulforhodamine B) detection method was used, and the optical density value of each well was read by a microplate reader at 490 nm wavelength.
(§5) The optical density of the cells at the drug action of 0 was set as a Tz value representing the value of the cells at the time that the drug was added. The optical density value of the cells after the solvent control DMSO acted for 72 hours was set as a C value. The optical density of the cells on which the test compounds acted for 72 hours was set as a Ti value. The response of the cells to the drug was calculated according to a method proposed by the U.S. NIH-NCI (National Institutes of Health-National Institute of Cancer): When Ti is more than or equal to Tz, the value was [(Ti−Tz)/(C−Tz)]×100; and when Ti is less than Tz, the value was [(Ti−Tz)/Tz]×100.

[13] = tested on: PC9 cells expressing EGFR-T790M/Del19; assay: as above; type: cell-based; conditions: Homo sapiens, PC-9, 72 h, read-out: EGFR-T790M/Del19 GI50
Procedure: as §3, §4, §5

[14] = tested on: PC9 cells expressing EGFR-C797S/T790M/Del19; assay: as above; type: cell-based; conditions: Homo sapiens, PC-9, 72 h, read-out: EGFR-C797S/T790M/Del19 GI50
Procedure: as §3, §4, §5

[15] = biological target: Ba/F3 cells expressing EGFR-T790M/L858R (Homo sapiens, UniProt P00533, T790M/L858R, cells depend on it); assay: Cell anti-proliferation experiment 1, BaF3 cells expressing EGFR mutation (CellTiter-Glo); type: cell-based; conditions: 3 days, CTG, read-out: EGFR-T790M/L858R IC50
Procedure: (§7) Test purpose: to detect the effect of the test compounds on the proliferation of cell lines containing EGFR mutations in BaF3 cells • 2. Test information: • 2.1. Cell information: Cell lines containing EGFR mutations in BaF3 were from WuXiAppTec: • BaF3-cell lines expressing EGFR mutation • EGFR-T790M/Del19 • EGFR-C797S/Del19 • EGFR-T790M/L858R • EGFR-C797S/L858R • EGFR-C797S/T790M/L858R • EGFR-C797S/T790M/Del19 • EGFR-WT wild-type cell lines • 2.2. Test method • Day 0: Cells were seeded in a plate. • a. An ultraviolet lamp of a biological safety cabinet was turned on and countdown was started for 30 minutes. • b. A medium was preheated in a 37° C. water bath. • c. After the ultraviolet irradiation was finished, the biological safety cabinet was opened. […] The cells were removed from an incubator, blown to a uniform cell suspension in the biological safety cabinet and counted. • e. […] The IC50 of each compound was calculated by computer fitting with XL-Fit analysis software (the IC50 of the compound on the cell activity inhibition could be obtained by reading the concentrations of the corresponding compounds at 500 inhibition rate). Inhibition rate % C (reading value of the control group without drug−reading value of the sample)/reading value of the control group without drug×100. • 3.

[16] = biological target: Ba/F3 cells expressing EGFR-C797S/L858R (Homo sapiens, UniProt P00533, C797S/L858R, cells depend on it); assay: as above; type: cell-based; conditions: 3 days, CTG, read-out: EGFR-C797S/L858R IC50
Procedure: as §7

[17] = High temperature (50° C.), Day 10
[18] = High temperature (50° C.), Day 30
[19] = Illumination (illuminance: 5000Lx), Day 10
[20] = Illumination (illuminance: 5000Lx)
[21] = Illumination (illuminance: 5000Lx), Day 30

T1 sequence (Q9UM73 whole entry, change not shown, the tested form may be a part): as the sequence (Q9UM73 whole entry L1196M, the tested form may be a part) above, with M1196L counted along it

COc1cc(N2CCC(N3CCN(C)CC3)CC2)c(C)cc1Nc1ncc(Cl)c(Nc2ccccc2P(C)(C)=O)n1 [Control compound 2]
GI50 [1]: 0.0436 µM
GI50 [2]: 0.0474 µM
GI50 [3]: 0.177 µM
GI50 [4]: 0.583 µM
GI50 [5]: 0.221 µM
GI50 [6]: 0.172 µM
GI50 [7]: 1.76 µM

COc1cc(N2CCC(N3CCN(C)CC3)CC2)c(C)cc1Nc1ncc(Br)c(Nc2ccc(C)cc2P(C)(C)=O)n1 [Crystal form 3, (2-((5-bromo-2-((2-methoxy-5-methyl-4-(4-(4-methylpiperazin-1-yl)piperidin-1-yl)phenyl)amino)pyrimidin-4-yl)amino)-5-methylphenyl)dimethylphosphorus oxide]
Hygroscopicity [8]: Slightly hygroscopic (the weight gain by hygroscopy is less than 2% but not less than 0.2%)
Weight gain % after 24 h [8]: 1.49%
purity ([9]; Day 0): purity: 99.44%;
the number of impurities above the reporting limit ([9]; Day 0): limit is 7;
total impurities ([9]; Day 0): 0.56%
total impurities ([9]; Day 0, listed as crystal form 3): 0.56%
purity [9, 17]: 99.28%; the
the number of impurities above the reporting limit [9, 17]: limit is 7; total
total impurities [9, 17]: impurities: 0.72%
purity [9, 18]: 98.89%; the
the number of impurities above the reporting limit [9, 18]: limit is 10;
total impurities [9, 18]: 1.11%
purity [9, 19]: purity: 98.83%;
the number of impurities above the reporting limit [9, 19]: limit is 10;
total impurities [9, 19]: 1.17%
Traits [9, 20]: light yellow
purity [9, 21]: purity: 96.95%;
the number of impurities above the reporting limit [9, 21]: limit is 17;
total impurities [9, 21]: 3.05%
total impurities ([9]; Illumination (illuminance: 5000Lx), Day 30, listed as crystal form 3): 3.05%
Traits [10]: off-white
Traits ([11]; Day 0): Off-white
Traits ([11]; Day 30): Light yellow
Solubility for 24 h (Solubility test): 1.23 mg/mL

COc1cc(N2CCC(N3CCN(C)CC3)CC2)c(C)cc1Nc1ncc(Br)c(Nc2ccc(C)cc2P(C)(C)=O)n1 [Crystal form 2, (2-((5-bromo-2-((2-methoxy-5-methyl-4-(4-(4-methylpiperazin-1-yl)piperidin-1-yl)phenyl)amino)pyrimidin-4-yl)amino)-5-methylphenyl)dimethylphosphorus oxide]
Hygroscopicity [8]: Slightly hygroscopic (the weight gain by hygroscopy is less than 2% but not less than 0.2%)
Weight gain % after 24 h [8]: 1.35%
purity ([9]; Day 0): purity: 99.37%
the number of impurities above the reporting limit ([9]; Day 0): limit is 7 total
total impurities ([9]; Day 0): impurities: 0.63%
total impurities ([9]; Day 0, listed as crystal form 2): 0.63%
purity [9, 17]: 99.20% the
the number of impurities above the reporting limit [9, 17]: limit is 9 total
total impurities [9, 17]: impurities: 0.80%
purity [9, 18]: purity: 98.72%;
the number of impurities above the reporting limit [9, 18]: limit is 13;
total impurities [9, 18]: 1.28%
purity [9, 19]: 99.01% the
the number of impurities above the reporting limit [9, 19]: limit is 10 total
total impurities [9, 19]: impurities: 0.99%
Traits [9, 20]: light yellow
purity [9, 21]: purity: 98.0%;
the number of impurities above the reporting limit [9, 21]: limit is 14;
total impurities [9, 21]: 2.0%
total impurities ([9]; Illumination (illuminance: 5000Lx), Day 30, listed as crystal form 2): 2.0%
Traits [10]: off-white
Traits ([11]; Day 0): Off-white
Traits ([11]; Day 30): Light yellow
Solubility for 24 h (Solubility test): 1.36 mg/mL

COc1cc(N2CCC(N3CCN(C)CC3)CC2)ccc1Nc1ncc(Cl)c(Nc2ccccc2P(C)(C)=O)n1 [Brigatinib (Brigatinib), Brigatinib]
GI50 [12]: 0.287 µM
GI50 [13]: 0.256 µM
GI50 [14]: 0.516 µM

COc1cc(N2CCC(N3CCN(C)CC3)CC2)ccc1Nc1ncc(Cl)c(Nc2ccc(C)cc2P(C)(C)=O)n1 [Control compound 3]
GI50 [1]: 0.0394 µM
GI50 [2]: 0.0502 µM
GI50 [3]: 0.203 µM
GI50 [4]: 0.566 µM
GI50 [5]: 0.192 µM
GI50 [6]: 0.216 µM
GI50 [7]: 2.34 µM

COc1cc(N2CCC(N3CCN(C)CC3)CC2)c(C)cc1Nc1ncc(Cl)c(Nc2cccc(C)c2P(C)(C)=O)n1 [Control compound 1]
GI50 [1]: 0.0341 µM
GI50 [15]: 0.156 µM
GI50 [2]: 0.065 µM
GI50 [16]: 0.573 µM
GI50 [3]: 0.184 µM
GI50 [4]: 0.626 µM
GI50 [5]: 0.18 µM
GI50 [6]: 0.166 µM
GI50 [7]: 1.6 µM
